# Article PMC6465675, “Design, Synthesis, Antiviral Evaluation, and SAR Studies of New 1-(Phenylsulfonyl)-1H-Pyrazol−4-yl-Methylaniline Derivatives” (Frontiers in Chemistry, 2019)
# Entries after “also recorded” stand apart in the source; their conditions may differ.
# How the values were obtained:
# HSV-1 = test: microbe, parasite or virus in culture; type: cell-based, human herpesvirus 1; conditions: Human alphaherpesvirus 1, Vero 76, read-out: HSV-1 EC50
# in vitro [1] = conditions: Cercopithecus aethiops (monkey), Vero76 CC50
# DENV-2 [2] = system: DENV-2
# WNV [3] = system: WNV
# in vitro [4] = conditions: Mesocricetus auratus (hamster)
# DENV-2 [5] = test: microbe, parasite or virus in culture; conditions: Dengue virus, DENV2, BHK, read-out: DENV-2 EC50
# WNV [6] = test: microbe, parasite or virus in culture; conditions: West Nile virus, BHK, read-out: WNV EC50
# Reo-1 = type: cell-based, reovirus type-1
# CVB-5 = test: microbe, parasite or virus in culture; type: cell-based, Coxsackievirus B5; conditions: Enterovirus B, Vero 76, read-out: CVB-5 EC50
# Sb-1 = test: microbe, parasite or virus in culture; type: cell-based, Poliovirus type-1, Sabin strain; conditions: Enterovirus C, Vero 76, read-out: Sb-1 EC50
# VV = test: microbe, parasite or virus in culture; type: cell-based; conditions: Orthopoxvirus vaccinia, Vero 76, read-out: VV EC50
# VSV = test: microbe, parasite or virus in culture; type: cell-based; conditions: Vesicular stomatitis virus, Vero 76, read-out: VSV EC50
# YFV [7] = type: cell-based, Yellow Fever Virus
# BVDV [8] = system: BVDV
# YFV [9] = system: YFV
# RSV [10] = system: RSV
# in vitro [11] = conditions: Bos taurus (cattle)
# in vitro [12] = conditions: human
# BVDV [13] = test: microbe, parasite or virus in culture; conditions: Bovine viral diarrhea virus isolates and strains, MDBK, read-out: BVDV EC50
# YFV [14] = test: microbe, parasite or virus in culture; conditions: Yellow fever virus, BHK, read-out: YFV EC50
# RSV [15] = test: microbe, parasite or virus in culture; conditions: human respiratory syncytial virus, Vero 76, read-out: RSV EC50
# HIV-1 = test: microbe, parasite or virus in culture; conditions: Human immunodeficiency virus 1, MT4, read-out: HIV-1 EC50
SMILES,EC50 (HSV-1),CC50 (in vitro [1]),CC50 (in vitro [4]),EC50 (CVB-5),EC50 (Sb-1),EC50 (VV),EC50 (VSV),melting point,SI CC50/EC50 (YFV) (YFV [9]),SI CC50/EC50 (RSV) (RSV [10]),CC50 (in vitro [11]),CC50 (in vitro [12]),EC50 (YFV [14]),EC50 (RSV [15]),also measured
"Nc1nc2c(ncn2COCCO)c(=O)[nH]1 [ACG, Acyclovir, reference compound]",2.9 ± 0.1 µM,> 100 µM,,,,,,,,,,,,,
Cc1ccc(NCc2cn(-c3ccccc3)nc2-c2ccc(Cl)cc2)cc1 [1n],,,> 100 µM,,,,,,,,,,,,SI CC50/EC50 (DENV-2) (DENV-2 [2]): >9.0; SI CC50/EC50 (WNV) (WNV [3]): >2.6; EC50 (DENV-2 [5]): 11.1 ± 1.6 µM; EC50 (WNV [6]): 39 ± 1 µM
Brc1ccc(NCc2cn(-c3ccccc3)nc2-c2ccc(Br)cc2)cc1 [1g],,,> 100 µM,,,,,,,,,,,,SI CC50/EC50 (DENV-2) (DENV-2 [2]): >4.3; SI CC50/EC50 (WNV) (WNV [3]): >1.25; EC50 (DENV-2 [5]): 23 ± 6 µM; EC50 (WNV [6]): 80 ± 8.5 µM
"C[C@@]1(O)[C@H](O)[C@@H](CO)O[C@H]1n1ccc(N)nc1=O [NM107, 2′-C-methylcitidine]",,,,,,,,,,,,,,,EC50 (Reo-1): 7.5 ± 1.5 µM; CC50 (BHK-21 cells): > 100 µM
"O=S(=O)(c1ccccc1)n1cc(CNc2ccccc2)c(-c2ccc(Br)cc2)n1 [7e, N-[(3-(4-Bromophenyl)-1-(phenylsulfonyl)-1H-pyrazol-4-yl)methyl]aniline]",> 87 µM,87 ± 1 µM,> 100 µM,> 87 µM,> 87 µM,> 87 µM,> 87 µM,110 to 111 °C,>27.8,4.9,> 100 µM,> 100 µM,3.6 ± 0.8 µM,17.8 ± 1.8 µM,"Effect on YFV titer, compound added post infection (YFV [7]): achieved the highest reduction of virus titer when added 2 h post infection and maintained up to 4 h post infection; also recorded: retained its inhibitory activity when added at any time p.i; also recorded: highest reduction of virus yield was observed when 7e was added 2 h post infection and maintained up to 4 h post infection; Effect on YFV titer, compound present in pre-treatment or during infection (YFV [7]): reduced the YFV titer when present in the pre-treatment or during the 2 h of infection; SI CC50/EC50 (BVDV) (BVDV [8]): >5.1; EC50 (BVDV [13]): 19.5 ± 2.1 µM; EC50 (HIV-1): 20 ± 2.4 µM"
Clc1ccc(NCc2cn(-c3ccccc3)nc2-c2ccc(Cl)cc2)cc1 [1i],,,73 ± 1 µM,,,,,,,,,,,,SI CC50/EC50 (DENV-2) (DENV-2 [2]): 5.0; SI CC50/EC50 (WNV) (WNV [3]): 1.3; EC50 (DENV-2 [5]): 14.5 ± 3.5 µM; EC50 (WNV [6]): 57.5 ± 0.5 µM
"C[C@@]1(O)[C@H](O)[C@@H](CO)O[C@H]1n1cnc2c(=O)[nH]c(N)nc21 [NM 108, 2′-C-methylguanosin, reference compound]",,,60 ± 3 µM,,,,,,,,,,,,SI CC50/EC50 (DENV-2) (DENV-2 [2]): 50.0; SI CC50/EC50 (WNV) (WNV [3]): 85.7; EC50 (DENV-2 [5]): 1.2 ± 0.1 µM; EC50 (WNV [6]): 0.7 ± 0.2 µM
Cc1ccc(NCc2cn(-c3ccccc3)nc2-c2ccc(C(F)(F)F)cc2)cc1 [1o],,,88 ± 0.5 µM,,,,,,,,,,,,SI CC50/EC50 (DENV-2) (DENV-2 [2]): 6.2; SI CC50/EC50 (WNV) (WNV [3]): 1.5; EC50 (DENV-2 [5]): 14.3 ± 0.7 µM; EC50 (WNV [6]): 59 ± 1.1 µM
"O=S(=O)(c1ccccc1)n1cc(CNc2ccc(Cl)cc2)c(-c2ccccc2)n1 [7b, 4-Chloro-N-[(3-phenyl-1-(phenylsulphonyl)-1H-pyrazol-4-yl)methyl]aniline]",> 80 µM,,> 100 µM,20 ± 5 µM,> 80 µM,> 80 µM,> 80 µM,136 to 137 °C,>12.3,,> 100 µM,> 100 µM,8.1 ± 1.3 µM,,
"O=S(=O)(c1ccccc1)n1cc(CNc2ccc(Cl)cc2)c(-c2ccc(Br)cc2)n1 [7f, 4-Chloro-N-[(3-(4-bromophenyl)-1-(phenysulfonyl)-1H-pyrazol-4-yl)methyl]aniline]",> 90 µM,90 ± 2 µM,> 100 µM,> 90 µM,> 90 µM,> 90 µM,> 90 µM,137 to 138 °C,>25.0,5.9,> 100 µM,> 100 µM,4 ± 0.7 µM,15.3 ± 2.5 µM,
"O=c1cnn([C@@H]2O[C@H](CO)[C@@H](O)[C@H]2O)c(=O)[nH]1 [6-Azauridine, reference compound]",,9.3 ± 1.6 µM,> 100 µM,,,,,,,7.2,,,46 ± 1.5 µM,1.3 ± 0.3 µM,"Effect on YFV titer, compound added post infection (YFV [7]): lost its effectiveness when added after the infection; Effect on YFV titer, compound present in pre-treatment or during infection (YFV [7]): reduced the YFV titer when present in the pre-treatment or during the 2 h of infection"
"Cc1ccc(NCc2cn(S(=O)(=O)c3ccccc3)nc2-c2ccc(Br)cc2)cc1 [7h, 4-Methyl-N-[(3-(4-bromophenyl)-1-(phenylsulfonyl)-1H-pyrazol-4-yl)methyl]aniline]",> 93 µM,93 ± 0.5 µM,> 100 µM,> 93 µM,> 93 µM,> 93 µM,> 93 µM,112 °C,>20.4,7.4,> 100 µM,> 100 µM,4.9 ± 0.9 µM,12.5 ± 2.5 µM,
"COc1ccc(S(=O)(=O)n2cc(CNc3ccc(Cl)cc3)c(-c3ccc(Cl)cc3)n2)cc1 [8f, 4-Chloro-N-[(3-(4-chlorophenyl)-1-((4-methoxyphenyl)sulfonyl)-1H-pyrazol-4-yl)methyl]aniline]",,> 100 µM,> 100 µM,,,,,158 to 159 °C,>6.25,,> 100 µM,> 100 µM,16 ± 0.7 µM,,SI CC50/EC50 (BVDV) (BVDV [8]): >12.7; EC50 (BVDV [13]): 7.9 ± 0.8 µM
"O=S(=O)(c1ccccc1)n1cc(CNc2ccc(Br)cc2)c(-c2ccccc2)n1 [7c, 4-Bromo-N-[(3-phenyl-1-(phenylsulfonyl)-1H-pyrazol-4-yl)methyl]aniline]",> 85 µM,,> 100 µM,24 ± 11 µM,> 85 µM,> 85 µM,> 85 µM,122 °C,>16.9,,> 100 µM,20 µM,5.9 ± 0.2 µM,> 3 µM,EC50 (HIV-1): > 20 µM
"COc1c(C)c2c(c(O)c1C/C=C(\C)CCC(=O)O)C(=O)OC2 [M 5255, Mycophenolic acid, reference compound]",,20 ± 0.3 µM,,,,2 ± 0.1 µM,,,,,,,,,
"O=S(=O)(c1ccccc1)n1cc(CNc2ccc(Cl)cc2)c(-c2ccc(Cl)cc2)n1 [7j, 4-Cloro-N-[(3-(4-chlorophenyl)-1-(phenylsulfonyl)-1H-pyrazol-4-yl)methyl]aniline]",,> 100 µM,> 100 µM,,,,,142 to 143 °C,>22.7,>11.8,> 100 µM,> 100 µM,4.4 ± 0.4 µM,8.5 ± 0.5 µM,SI CC50/EC50 (BVDV) (BVDV [8]): >2.3; EC50 (BVDV [13]): 43.3 ± 1.1 µM
"O=S(=O)(c1ccccc1)n1cc(CNc2ccc(Br)cc2)c(-c2ccc(Br)cc2)n1 [7g, 4-Bromo-N-[(3-(4-bromophenyl)-1-(phenylsulfonyl)-1H-pyrazol-4-yl)methyl]aniline]",> 90 µM,90 ± 1 µM,> 100 µM,> 90 µM,> 90 µM,> 90 µM,> 90 µM,150 to 151 °C,>16.1,5.7,> 100 µM,> 100 µM,6.2 ± 0.5 µM,15.8 ± 2 µM,
"NC(=O)c1ncn([C@@H]2O[C@H](CO)[C@@H](O)[C@H]2O)n1 [Ribavirin, reference compound]",,> 100 µM,,,,,,,,>2.7,55 ± 7 µM,,,37.5 ± 2.5 µM,SI CC50/EC50 (BVDV) (BVDV [8]): 3.4; EC50 (BVDV [13]): 16 ± 2 µM
"Cc1cc(CCCOc2c(C)cc(-c3noc(C(F)(F)F)n3)cc2C)on1 [Pleconaril, reference compound]",,70 ± 1 µM,,0.0025 ± 0.0005 µM,2 ± 0.1 µM,,,,,,,,,,
